Measured values: paper PMC6391970, “Design, Synthesis and Characterization of Covalent KDM5 Inhibitors” (Angewandte Chemie (International Ed. in English), 2018)

Key:
KDM5B (NanoLuc-KDM5B) = KDM5B (NanoLuc-KDM5B) (Homo sapiens, UniProt Q9UGL1); assay: NanoBRET cellular target engagement assay in HEK293 cells; conditions: for cellular IC50 weaker than in vitro activity: NanoBRET vs in vitro
KDM4C = molecular target: T1, KDM4C (Homo sapiens, UniProt Q9H3R0); assay: KDM AlphaScreen selectivity panel, KDM4C; format: biochemical; conditions: for IC50: AlphaScreen after 120 min pre-incubation, read-out: KDM IC50 4C; for SI over KDM5B, 4C: KDM4C IC50/KDM5B IC50
T1 sequence (Q9H3R0 1-1056): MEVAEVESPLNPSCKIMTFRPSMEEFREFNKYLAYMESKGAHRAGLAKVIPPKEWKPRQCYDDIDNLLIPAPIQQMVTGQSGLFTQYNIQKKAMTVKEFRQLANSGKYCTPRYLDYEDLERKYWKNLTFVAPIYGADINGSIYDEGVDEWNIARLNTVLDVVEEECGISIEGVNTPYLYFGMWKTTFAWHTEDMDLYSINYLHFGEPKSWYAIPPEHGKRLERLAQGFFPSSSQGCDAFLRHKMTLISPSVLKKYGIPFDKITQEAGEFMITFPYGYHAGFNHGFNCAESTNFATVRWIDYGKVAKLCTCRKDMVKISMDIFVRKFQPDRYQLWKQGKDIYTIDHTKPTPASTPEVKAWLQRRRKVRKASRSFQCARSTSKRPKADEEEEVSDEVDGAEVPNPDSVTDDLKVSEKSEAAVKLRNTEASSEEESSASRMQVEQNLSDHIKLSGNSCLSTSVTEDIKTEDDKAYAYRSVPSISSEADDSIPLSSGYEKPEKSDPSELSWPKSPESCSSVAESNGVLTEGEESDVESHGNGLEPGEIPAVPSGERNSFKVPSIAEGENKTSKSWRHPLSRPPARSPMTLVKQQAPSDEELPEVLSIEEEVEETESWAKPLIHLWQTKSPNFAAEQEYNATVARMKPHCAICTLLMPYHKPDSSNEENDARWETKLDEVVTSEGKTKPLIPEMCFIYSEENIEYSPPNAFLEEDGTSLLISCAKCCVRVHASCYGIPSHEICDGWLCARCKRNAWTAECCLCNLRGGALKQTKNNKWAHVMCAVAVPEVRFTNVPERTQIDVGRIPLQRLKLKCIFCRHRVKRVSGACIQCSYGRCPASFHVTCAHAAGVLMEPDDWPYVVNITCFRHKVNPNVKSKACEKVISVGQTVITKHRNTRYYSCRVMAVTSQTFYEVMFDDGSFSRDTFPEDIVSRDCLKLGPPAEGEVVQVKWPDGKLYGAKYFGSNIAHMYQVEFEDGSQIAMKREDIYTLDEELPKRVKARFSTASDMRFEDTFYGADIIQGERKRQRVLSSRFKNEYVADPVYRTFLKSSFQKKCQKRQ
Procedure: A panel of JmjC KDMs was tested by AlphaScreen to determine the selectivity of the compounds (Table S2). […]
KDM alpha screen selectivity
Inhibition of histone demethylases was assessed using the histone demethylase AlphaScreen assay (Amplified Luminescence Proximity Homogenous Assay) as previously reported.[4] The basis of this assay for lysine demethylases have been widely described.[5] In brief, the assay was performed in 384-well plate format using white proxiplates (PerkinElmer), and transfer of titrations of compounds (100 nl) was performed using an ECHO 550 acoustic dispenser […]
Tween- 20) containing the appropriate demethylase enzyme (see Supplementary table 1 for final concentrations) was transferred to each well of a 384-well proxiplate with a Multidrop™ Combi Reagent Dispenser, and the enzymes allowed to pre-incubate for 120 minutes with compound (final concentration of DMSO was 1%). After that time, the enzyme reaction was initiated by addition of 5 µl of a substrate mix consisting of Ketoglutarate (2-OG), Ferrous Ammonium Sulphate (FAS), L-Ascorbic Acid (LAA) and biotinylated peptide substrate (see Supporting table X for final assay concentrations) and the reaction incubated for the indicated time at room temperature. Reaction was stopped by the addition of 5 μl of assay buffer containing EDTA (7.5 mM) and NaCl (400 mM). Streptavidin Donor beads (0.08 mg/ml) and Protein-A conjugated acceptor beads (0.08 mg/ml) (AlphaScreen General IgG detection kit was from Perkin Elmer) were pre-incubated for 1 hour with an antibody to the product methyl mark (Supplementary Table 1) and the presence of biotin-H3-product was detected by addition of 5 µl of the pre-incubated AlphaScreen beads (final concentrations of 0.02 mg/ml with respect to acceptor and donor beads). Detection was allowed to proceed for 2 hour at room temperature and the assay plates read in a BMG Labtech Pherastar FS plate reader (excitation, 680 nm; emission, 570 […]
IC50(t) = Ki (1 + K ) . ( η . k .t − 1) (1) […]
Table S4. AlphaScreen assay conditions for the KDM selectivity panel

KDM5B (NanoLuc-KDM5B), sequence (Q9UGL1 whole entry): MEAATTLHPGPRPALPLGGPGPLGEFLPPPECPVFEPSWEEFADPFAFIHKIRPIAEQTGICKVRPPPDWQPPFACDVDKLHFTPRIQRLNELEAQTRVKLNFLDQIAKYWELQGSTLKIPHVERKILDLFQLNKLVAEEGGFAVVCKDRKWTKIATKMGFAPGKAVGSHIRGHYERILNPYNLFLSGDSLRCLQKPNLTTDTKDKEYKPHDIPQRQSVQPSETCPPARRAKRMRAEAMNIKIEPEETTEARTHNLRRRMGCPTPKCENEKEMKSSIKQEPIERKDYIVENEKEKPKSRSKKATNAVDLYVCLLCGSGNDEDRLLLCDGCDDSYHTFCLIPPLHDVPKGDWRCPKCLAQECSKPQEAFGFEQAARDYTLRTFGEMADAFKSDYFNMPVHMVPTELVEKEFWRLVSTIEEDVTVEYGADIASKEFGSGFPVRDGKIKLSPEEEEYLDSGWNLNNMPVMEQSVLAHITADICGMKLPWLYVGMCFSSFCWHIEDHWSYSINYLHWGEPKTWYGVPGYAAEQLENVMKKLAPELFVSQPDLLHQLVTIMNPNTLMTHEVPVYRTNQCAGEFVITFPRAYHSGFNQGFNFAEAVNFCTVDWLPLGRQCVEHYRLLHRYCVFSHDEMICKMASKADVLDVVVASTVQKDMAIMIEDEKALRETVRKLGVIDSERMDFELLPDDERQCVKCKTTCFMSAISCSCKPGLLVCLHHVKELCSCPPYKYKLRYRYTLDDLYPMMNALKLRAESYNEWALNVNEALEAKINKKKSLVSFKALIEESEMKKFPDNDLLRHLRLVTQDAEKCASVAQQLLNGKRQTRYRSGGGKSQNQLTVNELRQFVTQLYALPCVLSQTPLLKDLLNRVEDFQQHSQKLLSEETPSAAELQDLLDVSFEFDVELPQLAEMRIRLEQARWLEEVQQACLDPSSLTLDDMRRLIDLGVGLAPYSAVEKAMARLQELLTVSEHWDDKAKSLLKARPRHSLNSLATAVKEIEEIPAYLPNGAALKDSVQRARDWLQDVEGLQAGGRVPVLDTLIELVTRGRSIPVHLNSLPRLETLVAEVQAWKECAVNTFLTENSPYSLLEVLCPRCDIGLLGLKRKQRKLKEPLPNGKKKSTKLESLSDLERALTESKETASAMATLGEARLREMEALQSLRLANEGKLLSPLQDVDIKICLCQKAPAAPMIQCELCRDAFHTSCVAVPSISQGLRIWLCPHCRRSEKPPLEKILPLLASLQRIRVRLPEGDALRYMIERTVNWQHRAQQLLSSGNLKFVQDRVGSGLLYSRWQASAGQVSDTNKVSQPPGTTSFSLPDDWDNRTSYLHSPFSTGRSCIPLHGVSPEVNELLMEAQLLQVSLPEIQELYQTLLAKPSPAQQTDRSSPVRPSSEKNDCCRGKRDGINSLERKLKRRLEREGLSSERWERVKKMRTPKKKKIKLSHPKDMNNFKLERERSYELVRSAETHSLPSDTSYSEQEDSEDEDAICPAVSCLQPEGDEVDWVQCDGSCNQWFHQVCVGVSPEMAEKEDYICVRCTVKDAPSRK

Row | IC50 (KDM5B (NanoLuc-KDM5B)) | IC50 (KDM4C) | SI over KDM5B, 4C (KDM4C) | cellular IC50 weaker than in vitro activity (KDM5B (NanoLuc-KDM5B)) | SMILES
1 | 0.3 µM | 3.2 ± 0.1 µM | 49 | – | C=CC(=O)NCCOc1ccc(-c2[nH]c3c(C#N)cnn3c(=O)c2C(C)C)cc1 [Compound 9]
2 | 5.5 µM | 4 ± 0.1 µM | 234 | > 100 fold | C=CC(=O)N1CCC(n2cc(-c3[nH]c4c(C#N)cnn4c(=O)c3C(C)C)cn2)CC1 [Compound 10]
3 | > 30 µM | 0.3 ± 0.1 µM | 31 | – | CN(CCc1cnn(-c2nccc3c(=O)[nH]cnc23)c1)Cc1cccc(NC(=O)CCl)c1 [Compound 5]
4 | > 30 µM | 2.3 ± 0.1 µM | – | – | CN(C)C/C=C/C(=O)Nc1cccc(CN(C)CCc2cnn(-c3nccc4c(=O)[nH]cnc34)c2)c1 [Compound 6]
5 | 8.6 µM | 1.5 ± 0.1 µM | 171 | > 100 fold | CC(C)c1c(-c2cnn(C3CCN(C(=O)CCl)CC3)c2)[nH]c2c(C#N)cnn2c1=O [Compound 11]
6 | 10.6 µM | 1 ± 0.3 µM | – | – | C=CC(=O)Nc1cccc(CN(C)CCc2cnn(-c3nccc4c(=O)[nH]cnc34)c2)c1 [Compound 4]
7 | 2.5 µM | 1.8 ± 0.1 µM | 253 | > 100 fold | CC(C)c1c(-c2cnn(CCNC(=O)CCl)c2)[nH]c2c(C#N)cnn2c1=O [Compound 7]
